Reference: paper PMC3890288, “Toxicity of Functional Nano-Micro Zinc Oxide Tetrapods: Impact of Cell Culture Conditions, Cellular Age and Material Properties” (PLoS ONE, 2014)
Where two headings read alike, the source gives them in different places.

Experiments:
[1] = tested on: normal human dermal fibroblasts (NHDF); assay: MTT cell viability (cytotoxicity) assay on NHDF; type: cell-based; settings: NHDF P6–P9, 50000 cells/cm^2, 24 h treatment
Procedure: Normal human dermal fibroblasts (NHDF) (PromoCell, C12300) were cultured in Quantum 333 (PAA, U15-813) supplemented with 1% (v/v) penicillin/streptomycin (PAA, P11–010). NHDF are human primary cells which were isolated from the dermis of juvenile foreskin or adult skin with different origins (PromoCell). For stock cultures, 750000 cells in 20 ml medium were seeded weekly into a T75 flask (Sarstedt) and kept at 37°C and 5% CO2 in a humidified atmosphere. The medium was changed every two to three days. For sub-culturing, cells were trypsinized by Trypsin/EDTA (PAA, L11-659). Cells were counted under the microscope.
Powder of ZnO-T was scaled and brought for each experiment fresh into dispersion with culture medium at an initial concentration of 10 mg/ml. […]
The MTT assay was used to estimate the viability of cells by measuring the production of formazan mainly through the activity of cellular mitochondrial dehydrogenase. Cell viability was determined accordingly as described in already published paper, [64]. […] Production of formazan by viable cells was estimated after 90 min (37°C, 5% CO2) by measuring the absorbance at a wavelength of 570 nm (photometer 340 ATTC, SLT Lab instruments, Germany). […]
NHDF cells (passage numbers: P10–P14) were seeded into clear flat 96-well microtiter plates (Falcon® 3072) at a cell density of 50.000 cells/cm^2. […] Cell viability was analysed 24 h later. […]

[2] = tested on: normal human dermal fibroblasts (NHDF); assay: MTT cell viability (cytotoxicity) assay on NHDF; type: cell-based; settings: 24 h treatment, expressed as Zn, read-out: ZnCl2 EC50±SE as Zn (converted)

[Cl-].[Cl-].[Zn+2] [ZnCl2]
EC50±standard error [1]: 36 ± 1.4 µg/mL | EC50 ([1]; expressed as zinc, read-out: EC50±standard error in Zn^2+): 130 ± 10 µM | EC50 ([2]; P11–P15, 25000 cells/cm^2): 100 µM | EC50 ([2]; P11–P15, 100000 cells/cm^2): 130 µM | EC50 ([2]; P22–P26, 25000 cells/cm^2): 110 µM | EC50 ([2]; P22–P26, 100000 cells/cm^2): 120 µM
